Assay results published in patent US9981950B2, “Triazoles as NR2B receptor inhibitors” (Janssen Pharmaceuticals, Inc., priority 2014, dated 2018).
pIC50: −log10 of the molar value.

Legend:
[1] = biological target: T1, rat NR1/NR2B receptor (Rattus norvegicus (Rat), UniProt P35439+Q00960); assay: NR2B binding assay: inhibition of specific [3H]-Ifenprodil binding to the rat NR1/NR2B receptor; conditions: rat brain membranes, Hill-plot 2-parameter-model
Summary of the method: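 Nonspecific binding was defined with […] CP101.606, and bound radioactivity was separated by filtration over PEI-soaked filters. IC50 was fitted with a Hill-plot 2-parameter model.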

[2] = biological target: hERG-receptor (Homo sapiens (Human), UniProt Q12809); assay: HERGBD: inhibition of specific 3H-Dofetilide binding to the hERG-receptor; conditions: HEK cell membranes with human ERG, Hill-plot 2-parameter-model
Summary of the method: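 Membranes from HEK cells stably expressing human ERG incubated 90 min at RT with 1.5 nmol/l 3H-dofetilide in 20 mM HEPES/0.1 mM KCl pH 7.2, inhibitor in 1% DMSO. Nonspecific binding with […] dofetilide; bound ligand separated by filtration and scintillation counted.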

[3] = biological target: T1, rat NR1/NR2B receptor; assay: RRNR2BB: inhibition of specific binding to the rat NR1/NR2B receptor; conditions: [3H]-Ifenprodil binding, rat brain membranes, Hill-plot 2-parameter-model
Summary of the method: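 Washed membranes from male Wistar rat forebrain (whole brain minus cerebellum) in 5 mM Tris/1 mM EDTA pH 7.4 used in ifenprodil-site binding, 60 min at 4° C. Nonspecific binding defined with […] CP101.606; bound separated by filtration on PEI-soaked filters. IC50 from Hill plot, 2-parameter model.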

T1 sequence (Q00960 27-1482, other chains not shown): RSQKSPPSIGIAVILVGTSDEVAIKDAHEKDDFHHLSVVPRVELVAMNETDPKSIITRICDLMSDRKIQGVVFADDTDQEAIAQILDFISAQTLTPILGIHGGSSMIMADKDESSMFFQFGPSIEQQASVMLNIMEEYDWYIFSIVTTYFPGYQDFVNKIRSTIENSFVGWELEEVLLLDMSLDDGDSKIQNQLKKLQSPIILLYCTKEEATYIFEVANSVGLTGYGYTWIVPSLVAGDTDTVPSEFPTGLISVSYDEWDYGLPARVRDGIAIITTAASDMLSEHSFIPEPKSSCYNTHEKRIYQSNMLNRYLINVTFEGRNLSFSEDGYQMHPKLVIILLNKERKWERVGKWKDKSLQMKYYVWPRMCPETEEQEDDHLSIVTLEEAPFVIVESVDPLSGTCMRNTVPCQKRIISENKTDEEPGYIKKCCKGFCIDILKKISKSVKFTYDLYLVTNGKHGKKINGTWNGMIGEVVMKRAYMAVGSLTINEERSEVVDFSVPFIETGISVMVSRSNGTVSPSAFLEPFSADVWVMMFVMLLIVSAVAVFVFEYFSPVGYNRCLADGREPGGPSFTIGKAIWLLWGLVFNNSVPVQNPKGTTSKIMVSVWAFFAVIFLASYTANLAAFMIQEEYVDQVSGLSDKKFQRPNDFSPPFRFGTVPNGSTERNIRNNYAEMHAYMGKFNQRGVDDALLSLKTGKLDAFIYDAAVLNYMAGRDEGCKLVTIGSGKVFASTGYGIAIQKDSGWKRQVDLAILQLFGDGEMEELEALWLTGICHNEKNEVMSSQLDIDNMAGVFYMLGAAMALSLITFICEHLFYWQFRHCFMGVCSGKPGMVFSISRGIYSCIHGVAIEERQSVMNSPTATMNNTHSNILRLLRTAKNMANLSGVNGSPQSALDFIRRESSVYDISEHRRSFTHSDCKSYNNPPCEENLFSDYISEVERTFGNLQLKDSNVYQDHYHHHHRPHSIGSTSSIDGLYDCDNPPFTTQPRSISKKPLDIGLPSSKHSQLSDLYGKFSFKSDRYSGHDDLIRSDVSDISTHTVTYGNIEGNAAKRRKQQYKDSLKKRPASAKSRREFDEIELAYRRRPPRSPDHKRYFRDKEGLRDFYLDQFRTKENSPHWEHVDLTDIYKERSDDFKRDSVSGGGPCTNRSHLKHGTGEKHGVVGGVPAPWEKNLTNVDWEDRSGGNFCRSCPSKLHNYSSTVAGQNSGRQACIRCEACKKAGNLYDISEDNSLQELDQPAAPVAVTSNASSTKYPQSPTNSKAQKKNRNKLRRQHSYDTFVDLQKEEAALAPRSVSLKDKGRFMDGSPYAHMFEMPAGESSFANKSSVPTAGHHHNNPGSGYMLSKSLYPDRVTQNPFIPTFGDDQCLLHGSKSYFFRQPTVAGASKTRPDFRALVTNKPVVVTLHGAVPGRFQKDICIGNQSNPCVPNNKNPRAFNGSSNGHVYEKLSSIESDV
Sequence of hERG-receptor (Q12809 whole entry): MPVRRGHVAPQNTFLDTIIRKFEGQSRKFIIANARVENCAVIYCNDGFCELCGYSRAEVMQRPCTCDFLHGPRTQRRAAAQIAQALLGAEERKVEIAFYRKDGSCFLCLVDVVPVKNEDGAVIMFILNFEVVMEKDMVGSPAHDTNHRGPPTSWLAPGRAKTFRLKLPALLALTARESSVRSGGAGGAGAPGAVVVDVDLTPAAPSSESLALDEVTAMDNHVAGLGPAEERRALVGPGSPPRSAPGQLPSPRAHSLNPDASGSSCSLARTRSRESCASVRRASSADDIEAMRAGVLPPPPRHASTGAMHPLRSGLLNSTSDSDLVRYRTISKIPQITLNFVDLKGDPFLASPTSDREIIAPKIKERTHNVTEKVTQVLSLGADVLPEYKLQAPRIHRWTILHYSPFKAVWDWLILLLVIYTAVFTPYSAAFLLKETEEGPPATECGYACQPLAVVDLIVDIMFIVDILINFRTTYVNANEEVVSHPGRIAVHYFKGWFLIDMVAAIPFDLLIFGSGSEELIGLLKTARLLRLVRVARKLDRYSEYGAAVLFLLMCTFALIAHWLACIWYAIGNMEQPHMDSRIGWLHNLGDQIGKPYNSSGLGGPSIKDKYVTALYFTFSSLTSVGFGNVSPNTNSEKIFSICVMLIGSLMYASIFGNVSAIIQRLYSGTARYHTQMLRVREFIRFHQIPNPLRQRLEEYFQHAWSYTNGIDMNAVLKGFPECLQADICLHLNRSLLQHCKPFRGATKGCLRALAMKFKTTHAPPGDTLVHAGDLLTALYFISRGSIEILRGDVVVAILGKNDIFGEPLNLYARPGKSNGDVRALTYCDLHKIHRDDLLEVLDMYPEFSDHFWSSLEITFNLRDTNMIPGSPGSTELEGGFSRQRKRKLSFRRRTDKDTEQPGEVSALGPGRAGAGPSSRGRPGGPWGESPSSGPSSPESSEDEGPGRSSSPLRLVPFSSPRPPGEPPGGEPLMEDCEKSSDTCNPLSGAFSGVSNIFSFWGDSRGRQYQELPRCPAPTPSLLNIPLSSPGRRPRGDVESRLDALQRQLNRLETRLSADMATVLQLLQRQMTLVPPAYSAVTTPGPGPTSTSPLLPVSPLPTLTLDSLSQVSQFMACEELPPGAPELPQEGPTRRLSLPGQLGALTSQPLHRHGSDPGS

Structure (SMILES) | pIC50 [1] | pIC50 [3] | pIC50 [2]
CC(C)c1nccn1Cc1cn(-c2ccc(Cl)cc2)nn1 [Example 23, 1-(4-Chloro-phenyl)-4-(2-isopropyl-imidazol-1-ylmethyl)-1H-[1,2,3]triazole] | 7.11 | 7.11 | 5.10
Cc1nccn1Cc1cn(-c2ccc(F)c(C(F)F)c2)nn1 [Example 81, 1-(3-Difluoromethyl-4-fluoro-1-phenyl)-4-(2-methyl-imidazol-1-ylmethyl)-1H-[1,2,3]triazole] | 8.42 | 8.42 | 4.84
Fc1ccc(-n2cc(Cn3ccnc3C3CC3)nn2)cc1C(F)F [Example 82, 4-(2-Cyclopropyl-imidazol-1-ylmethyl)-1-(3-difluoromethyl-4-fluoro-phenyl)-1H-[1,2,3]triazole] | 7.79 | 7.79 | 4.80
CC(C)c1nccn1Cc1cn(-c2ccc(F)c(C(F)F)c2)nn1 [Example 84, 1-(3-Difluoromethyl-4-fluoro-phenyl)-4-(2-isopropyl-imidazol-1-ylmethyl)-1H-[1,2,3]triazole] | 7.96 | 7.96 | 4.60

Further lines, with some results ahead:

pIC50 [1] | pIC50 [3] | Structure (SMILES) | pIC50 [2]
8.92 | 8.92 | Cc1nccn1Cc1cn(-c2ccc(Cl)c(OC(F)F)c2)nn1 [Example 93, 1-(4-Chloro-3-difluoromethoxy-phenyl)-4-(2-methyl-imidazol-1-ylmethyl)-1H-[1,2,3]triazole] | 5.02
8.37 | 8.37 | OCCc1nccn1Cc1cn(-c2ccc(F)c(OC(F)F)c2)nn1 [Example 101, 1-(3-Difluoromethoxy-4-fluoro-phenyl)-4-[2-(2-hydroxy-ethyl)-imidazol-1-ylmethyl]-1H-[1,2,3]triazole] | 4.44
5.36 | 5.36 | Cn1nccc1Cc1cn(-c2ccc(F)c(Cl)c2)nn1 [Example 109, 1-(3-Chloro-4-fluoro-phenyl)-4-(2-methyl-2H-pyrazol-3-ylmethyl)-1H-[1,2,3]triazole] | < 4.00
9.19 | 9.19 | Nc1nccn1Cc1cn(-c2ccc(Cl)c(C(F)F)c2)nn1 [Example 113A, 4-(2-amino-imidazol-1-ylmethyl)-1-(4-chloro-3-difluoromethyl-phenyl)-1H-[1,2,3]triazole] | 5.51
9.32 | 9.32 | Nc1nccn1Cc1cn(-c2ccc(F)c(C(F)F)c2)nn1 [Example 113B, 4-(2-amino-imidazol-1-ylmethyl)-1-(4-fluoro-3-difluoromethyl-phenyl)-1H-[1,2,3]triazole] | 4.96
9.29 | 9.29 | CC(F)(F)c1cc(-n2cc(Cn3ccnc3N)nn2)ccc1F [Example 114] | 5.37
